These results are taken from patent publication US20100216834A1, “HIV INTEGRASE INHIBITORS” (priority 2006, published 2010).

For orientation: IC50 means the concentration that gives 50% inhibition.

The structures appear in SMILES notation. Read-outs that look alike come from different tables or passages of the source.

One experiment has as its system HIV. The experiment in a line: Assay for inhibition of HIV replication (spread assay): acute HIV infection of T-lymphoid cells. It counts as cell-based. As for the experimental part:
Assays for the inhibition of acute HIV infection of T-lymphoid cells were conducted in accordance with Vacca, J. P. et al., Proc. Natl. Acad. Sci. USA 1994, 91: 4096. […] For example, the compounds of Examples 1 to 3 were tested in this assay and found to have the following IC95 values: […]

For experiment [1], the target named is T1, recombinant integrase (HIV integrase) (Human immunodeficiency virus type 1 group M subtype B, UniProt P04585).
T1 construct: Strand Transfer Catalyzed by Recombinant Integrase
The experiment in a line: HIV integrase assay: strand transfer catalyzed by recombinant integrase. It counts as biochemical. As for the experimental part:
Assays for the strand transfer activity of integrase were conducted in accordance with WO 02/30930 for recombinant integrase. […] For example, the compounds prepared in Examples 1 to 3 were tested in the integrase assay and found to have the following IC50 values:
Further description on conducting the assay using preassembled complexes is found in Wolfe, A. L. et al., J. Virol. 1996, 70: 1424-1432, Hazuda et al., J. Virol. 1997, 71: 7005-7011; Hazuda et al., Drug Design and Discovery 1997, 15: 17-24; and Hazuda et al., Science 2000, 287: 646-650.

Where [2] appears, read: IC50 (inhibition of strand transfer activity).

Consider `CN1C[C@H](O)C(C)(C)Cn2c(c3c(c(O)c2=O)C(=O)N(Cc2ccc(F)c(Cl)c2)CC3)C1=O` (single isomer, unassigned) [Ex. 1 - Isomer A-1], for which the “IC95 in the presence of 10% FBS” value in the experiment on HIV was determined as 15 nM. Further, in experiment [1] (setting [2]), the IC50 is 14 nM.
As to `CN1C[C@H](O)C(C)(C)Cn2c(c3c(c(O)c2=O)C(=O)N(Cc2ccc(F)c(Cl)c2)CC3)C1=O` (single isomer, unassigned) [Ex. 1 - Isomer B-1], the “IC95 in the presence of 10% FBS” value in the experiment with HIV came to 31 nM. The IC50 in experiment [1] (setting [2]) was 21 nM.
As for `CN1C[C@@H](O)C(C)(C)Cn2c(c3c(c(O)c2=O)C(=O)N(Cc2ccc(F)c(Cl)c2)CC3)C1=O` (single isomer, unassigned) [Ex. 2], the “IC95 in the presence of 10% FBS” value in the experiment on HIV is 31 nM. Further, the 50% inhibitory concentration (IC50) in experiment [1] (read-out: IC50 (inhibition of strand transfer activity)) was determined as 3 nM.
For `CC1CCCN(C)C(=O)c2c3c(c(O)c(=O)n21)C(=O)N(Cc1ccc(F)c(Cl)c1)CC3` (single isomer, unassigned) [Ex. 3 - Diasteromer A-3, 11-(3-Chloro-4-fluorobenzyl)-9-hydroxy-2,6-dimethyl-3,4,5,6,12,13-hexahydro-2H[1,4]diazocino[2,1-a]-2,6-naphthyridine-1,8,10(11H)-trione], the “IC95 in the presence of 10% FBS” value with HIV came out at 125 nM. Also, the IC50 in experiment [1] (setting [2]) was found to be 17 nM.
In the same order, the values of `CC1CCCN(C)C(=O)c2c3c(c(O)c(=O)n21)C(=O)N(Cc1ccc(F)c(Cl)c1)CC3` (single isomer, unassigned) [Ex. 3 - Diasteromer B-3, 11-(3-Chloro-4-fluorobenzyl)-9-hydroxy-2,6-dimethyl-3,4,5,6,12,13-hexahydro-2H[1,4]diazocino[2,1-a]-2,6-naphthyridine-1,8,10(11H)-trione] are 11 nM and 17 nM.
Turning to `CC1CCCN(C)C(=O)c2c3c(c(O)c(=O)n21)C(=O)N(Cc1ccc(F)c(Cl)c1)CC3` (single isomer, unassigned) [Ex. 3 - Diasteromer C-3, 11-(3-Chloro-4-fluorobenzyl)-9-hydroxy-2,6-dimethyl-3,4,5,6,12,13-hexahydro-2H[1,4]diazocino[2,1-a]-2,6-naphthyridine-1,8,10(11H)-trione], the “IC95 in the presence of 10% FBS” value with HIV came out at 250 nM. In experiment [1] (setting [2]), the half-inhibitory concentration (IC50) amounted to 8 nM.
`CC1CCCN(C)C(=O)c2c3c(c(O)c(=O)n21)C(=O)N(Cc1ccc(F)c(Cl)c1)CC3` (single isomer, unassigned) [Ex. 3 - Diasteromer D-3, 11-(3-Chloro-4-fluorobenzyl)-9-hydroxy-2,6-dimethyl-3,4,5,6,12,13-hexahydro-2H[1,4]diazocino[2,1-a]-2,6-naphthyridine-1,8,10(11H)-trione]: the “IC95 in the presence of 10% FBS” value with HIV was 8 nM. For the same compound, the IC50 in experiment [1] (setting [2]) stood at 8 nM.
